{"source": "paper PMC5982655", "about": "“Interaction of the New Monofunctional Anticancer Agent Phenanthriplatin With Transporters for Organic Cations” (Frontiers in Chemistry, 2018)", "key": {"[1]": {"target": "T1, hMATE1 (Homo sapiens, UniProt Q96FL8)", "T1 construct": "expressed in transfected cells", "T1 sequence (Q96FL8 1-570)": "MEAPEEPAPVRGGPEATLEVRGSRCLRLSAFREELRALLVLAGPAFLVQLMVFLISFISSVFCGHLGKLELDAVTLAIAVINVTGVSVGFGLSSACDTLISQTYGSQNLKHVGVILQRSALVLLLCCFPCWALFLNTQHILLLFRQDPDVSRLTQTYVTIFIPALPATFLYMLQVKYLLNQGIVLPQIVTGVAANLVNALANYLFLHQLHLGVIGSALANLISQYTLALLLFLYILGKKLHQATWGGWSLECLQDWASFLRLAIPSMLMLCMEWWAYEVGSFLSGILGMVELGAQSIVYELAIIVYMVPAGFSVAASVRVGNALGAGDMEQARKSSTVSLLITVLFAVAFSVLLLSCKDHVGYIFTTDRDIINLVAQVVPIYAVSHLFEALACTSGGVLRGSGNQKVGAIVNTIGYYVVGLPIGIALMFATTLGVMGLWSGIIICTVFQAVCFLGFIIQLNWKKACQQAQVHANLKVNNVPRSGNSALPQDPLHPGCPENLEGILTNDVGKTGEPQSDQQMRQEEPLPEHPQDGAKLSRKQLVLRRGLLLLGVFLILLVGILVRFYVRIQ", "set-up": "method as in Astorga et al., [2012]", "details": "ref Astorga et al., [2012]; cited from earlier work"}, "[2]": {"target": "T2, hMATE2K (Homo sapiens, UniProt Q86VL8)", "T2 construct": "expressed in transfected cells", "T2 sequence (Q86VL8 1-566 isoform Q86VL8-3)": "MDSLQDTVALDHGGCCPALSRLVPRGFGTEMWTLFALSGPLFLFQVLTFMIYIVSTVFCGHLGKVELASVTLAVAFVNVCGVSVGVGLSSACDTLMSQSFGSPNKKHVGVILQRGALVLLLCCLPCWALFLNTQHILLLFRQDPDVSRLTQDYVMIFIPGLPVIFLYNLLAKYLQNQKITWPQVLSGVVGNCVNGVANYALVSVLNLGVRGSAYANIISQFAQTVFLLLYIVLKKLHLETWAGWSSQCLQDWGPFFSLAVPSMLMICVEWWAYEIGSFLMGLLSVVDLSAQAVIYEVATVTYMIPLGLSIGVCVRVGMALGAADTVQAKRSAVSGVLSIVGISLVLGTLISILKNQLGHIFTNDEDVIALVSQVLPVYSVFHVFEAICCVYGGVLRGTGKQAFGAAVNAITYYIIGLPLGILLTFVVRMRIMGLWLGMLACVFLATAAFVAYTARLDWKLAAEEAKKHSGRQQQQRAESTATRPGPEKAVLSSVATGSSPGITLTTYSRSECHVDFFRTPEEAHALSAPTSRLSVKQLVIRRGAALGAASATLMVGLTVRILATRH", "set-up": "method as in Astorga et al., [2012]", "details": "ref Astorga et al., [2012]; cited from earlier work"}, "[3]": {"target": "T3, hOCT2 (Homo sapiens, UniProt O15244)", "T3 construct": "expressed in transfected cells; gift of H. Koepsell", "T3 sequence (O15244 1-555)": "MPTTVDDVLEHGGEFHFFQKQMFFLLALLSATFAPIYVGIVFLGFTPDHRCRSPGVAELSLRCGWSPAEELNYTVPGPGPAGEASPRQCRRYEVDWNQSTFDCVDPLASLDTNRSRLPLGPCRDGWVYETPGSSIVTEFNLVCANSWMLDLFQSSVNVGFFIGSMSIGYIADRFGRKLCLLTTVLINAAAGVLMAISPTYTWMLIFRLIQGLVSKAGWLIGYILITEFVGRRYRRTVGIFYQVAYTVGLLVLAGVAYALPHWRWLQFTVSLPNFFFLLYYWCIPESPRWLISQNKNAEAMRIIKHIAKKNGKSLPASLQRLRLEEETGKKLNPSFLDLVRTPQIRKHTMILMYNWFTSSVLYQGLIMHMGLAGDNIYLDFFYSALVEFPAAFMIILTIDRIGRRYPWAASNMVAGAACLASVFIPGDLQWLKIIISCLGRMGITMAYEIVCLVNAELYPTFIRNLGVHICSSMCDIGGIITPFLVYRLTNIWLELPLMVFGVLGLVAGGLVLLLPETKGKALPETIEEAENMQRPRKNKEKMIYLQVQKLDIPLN", "assay": "Inhibition of ASP+ uptake in HEK 293 cells expressing hOCT2", "type": "cell-based", "details": "HEK 293 hOCT2, 1 μM ASP+", "experimental": "(§1) The interaction of phenanthriplatin with transporters for organic cations (OCT1-3, MATE1, and MATE2K) was investigated by measuring its effects on the uptake of the fluorescent organic cation 4-(4-dimethylamino)styryl-N-methylpyridinium (ASP^+). Microfluorometric measurements of ASP^+ uptake were performed with a fluorescence plate reader (Infinity 200, Tecan, Crailsheim, Germany; excitation at 465 nm, emission at 590 nm) as described previously for cultured HEK 293 cells (Wilde et al., [2009]). Before measurements, the culture medium in the wells of the 96 well microtiter plate containing HEK 293 cells was replaced by a HCO3- -free Ringer-like solution containing (in mM) NaCl 145, K2HPO4 1.6, KH2PO4 0.4, D-glucose 5, MgCl2 1, calcium gluconate 1.3, and pH adjusted to 7.4. Fluorescence was measured dynamically at 37°C in each well before and after ASP^+ addition to HCO3- -free Ringer-like solution, alone or together with increasing phenanthriplatin concentrations, and plotted versus time. ASP^+ (final concentration 1 or 10 μM for experiments with OCTs or MATEs, respectively) was added after the third sampling interval. Emission from the complete area of the well bottom was analyzed four times and averaged for each well. […] Background fluorescence was measured for each plate in wells with identical solutions containing no cells and subtracted from each well containing cells. Experiments were performed with cells from one passage of the same day with controls and test replicates in the same plate.\n(§2) Data are presented as mean values ± SEM, with (n) referring to the number of wells. IC50 values defined as the concentration of platinum agent required to inhibit uptake of ASP^+ by 50% and EC50 values used to assess cell viability were obtained by sigmoidal concentration-response curve fitting using GraphPad Prism, Version 5.3 (GraphPad Software, San Diego, USA). […] For multiple comparisons, ANOVA with Bonferroni post-test was used. A P-value < 0.05 was considered statistically significant."}, "[4]": {"target": "T4, hOCT1 (Homo sapiens, UniProt O15245)", "T4 construct": "expressed in transfected cells; gift of H. Koepsell", "T4 sequence (O15245 1-554)": "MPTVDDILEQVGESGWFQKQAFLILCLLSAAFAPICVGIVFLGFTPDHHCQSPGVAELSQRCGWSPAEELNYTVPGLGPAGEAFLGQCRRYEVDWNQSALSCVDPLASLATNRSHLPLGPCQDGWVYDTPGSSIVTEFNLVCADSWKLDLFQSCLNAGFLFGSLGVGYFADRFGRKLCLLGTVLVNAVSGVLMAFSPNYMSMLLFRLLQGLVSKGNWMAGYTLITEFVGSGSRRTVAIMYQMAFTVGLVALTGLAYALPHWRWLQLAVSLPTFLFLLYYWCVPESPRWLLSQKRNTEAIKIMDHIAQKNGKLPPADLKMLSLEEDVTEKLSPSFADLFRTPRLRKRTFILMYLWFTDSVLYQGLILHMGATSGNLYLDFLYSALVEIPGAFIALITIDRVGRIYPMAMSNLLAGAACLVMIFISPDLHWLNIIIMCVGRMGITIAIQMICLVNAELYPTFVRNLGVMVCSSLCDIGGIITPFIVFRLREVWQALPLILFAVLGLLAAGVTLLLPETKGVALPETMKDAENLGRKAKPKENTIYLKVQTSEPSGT", "assay": "Inhibition of ASP+ uptake in HEK 293 cells expressing hOCT1", "type": "cell-based", "details": "HEK 293 hOCT1, 1 μM ASP+", "experimental": "as §1, §2"}, "[5]": {"system": "Ctr1^−/− MEFs", "assay": "MTT cell viability, Ctr1-/- MEFs", "type": "cell-based, mouse", "details": "1 mM, 10 min", "experimental": "(§3) A modified 3-(4,5-dimethylthiazol-2-yl)-2,5-diphenyltetrazolium bromide (MTT) assay (Mosmann, [1983]) was used to test the chemosensitivity of cells to phenanthriplatin and, in some experiments, to cisplatin by determining the glycolysis rate via the reduction of the yellow tetrazolium salt MTT to a purple formazan dye, as previously described (Wehe et al., [2014]). Briefly, after growing for 24 h in the incubator, cells expressing or not hOCT2, hMATE1, hMATE2 or Ctr1 were treated for 10 min with platinum derivatives. Control cells were incubated with drug-free complete cell culture medium. Afterwards, the medium was carefully removed and replaced by 200 μL of fresh complete cell culture medium. After incubation for another 24 h, 10 μL of MTT solution containing 5 mg/mL of the dye were added to each well, and the cells were again incubated for 3 h. The medium was then removed and 100 μL of lysis buffer containing 10% (w/v) sodium dodecyl sulfate and 40% (v/v) dimethylformamide was added to each well. The plates were shaken for 10 min to destroy the cell structure and dissolve the blue formazan dye (Furchert et al., [2007]; Wehe et al., [2014]). Finally, the absorbance was measured at 590 nm using an automated microtiter plate reader (Infinite M200; Tecan, Männedorf, Switzerland). The percentage of viable cells in the untreated controls was compared to that for the various treatments. Experiments carried out with DAOY and UW228 cells followed a similar protocol except that these cells were incubated for 24 h with phenanthriplatin."}, "[6]": {"system": "Ctr1^+/+ MEFs", "assay": "MTT cell viability, Ctr1+/+ MEFs", "type": "cell-based, mouse", "details": "1 mM, 10 min", "experimental": "as §3"}, "[7]": {"target": "T1, hMATE1", "assay": "Inhibition of ASP+ uptake in HEK 293 cells expressing hMATE1", "type": "cell-based", "details": "inhibition of ASP+ uptake, HEK293 hMATE1, Supplementary Figure 1", "experimental": "as §1, §2"}, "[8]": {"system": "HEK 293 hOCT2 cells", "assay": "MTT cell viability, HEK 293 hOCT2 cells", "type": "cell-based, human", "details": "HEK 293 hOCT2, cimetidine alone (10 or 100 μM), 10 min", "experimental": "as §3"}}}
{"smiles": "C[n+]1ccc(-c2ccccc2)cc1", "note": "[MPP^+, 1-methyl-4-phenylpyridinium]", "values": [{"measurement": "Affinity for hMATE1", "setting": "[1]", "value": 4.7, "unit": "µM"}, {"measurement": "Affinity for hMATE2K", "setting": "[2]", "value": 3.3, "unit": "µM"}]}
{"smiles": "N.N.[Cl][Pt][Cl]", "note": "[cisplatin, reference compound]", "values": [{"measurement": "IC50", "setting": "[3]", "value": 50, "unit": "µM"}, {"measurement": "IC50", "setting": "[4]", "value": 61, "unit": "µM"}, {"measurement": "Cell viability (MTT)", "setting": "[5]", "value": "no decrease in cell viability"}, {"measurement": "Cell viability (MTT)", "setting": "[6]", "value": "toxic to Ctr1^+/+"}, {"measurement": "Interaction (affinity) with hMATE1", "setting": "[7]", "value": "very low affinity"}]}
{"smiles": "CN/C(=N/CCSCc1nc[nH]c1C)NC#N", "note": "[Cimetidine, cimetidine, reference compound]", "values": [{"measurement": "Cell viability (MTT)", "setting": "[8]", "value": "no significant effect on cell viability"}]}
